Laboratory results: patent publication US5202315A, “Cephalosporin compounds” (Lucky, Ltd., priority 1989, dated 1993)
≈ marks a conversion by molar mass, not a printed value. Read-outs that look alike come from different tables or passages of the source.

Legend:
[1] = tested on: Acinetobacter calcoaceticus ATCC 15473; assay: Antibacterial activity, MIC; type: cell-based; details: ATCC15473, ATCC 15473, agar two-fold dilution, 37° C., 20 hours, read-out: MIC
Method in brief: (§1)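 Agar two-fold dilution method: compound serially diluted two-fold in Mueller-Hinton agar, spotted with 2 μl of a 10^7 CFU/ml inoculum of each standard strain, then incubated at 37 °C for 20 h.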

[2] = tested on: Bacillus cereus ATCC 11778; assay: Antibacterial activity, MIC; type: cell-based; details: ATCC11778, ATCC 11778, agar two-fold dilution, 37° C., 20 hours, read-out: MIC
Method in brief: as §1

[3] = tested on: Bacillus megaterium ATCC 9885; assay: Antibacterial activity, MIC; type: cell-based; details: Priestia megaterium, ATCC9885; ATCC 9885; agar two-fold dilution, 37° C., 20 hours; read-out: MIC
Method in brief: as §1

[4] = tested on: Citrobacter freundii ATCC 8090; assay: Antibacterial activity, MIC; type: cell-based; details: ATCC8090, ATCC 8090, agar two-fold dilution, 37° C., 20 hours, read-out: MIC
Method in brief: as §1

[5] = tested on: Enterobacter aerogenes ATCC 29751; assay: Antibacterial activity, MIC; type: cell-based; details: Klebsiella aerogenes, ATCC29751; ATCC 29751; agar two-fold dilution, 37° C., 20 hours; read-out: MIC
Method in brief: as §1

[6] = tested on: Enterobacter cloacae ATCC 27508; assay: Antibacterial activity, MIC; type: cell-based; details: ATCC27508, ATCC 27508, agar two-fold dilution, 37° C., 20 hours, read-out: MIC
Method in brief: as §1

[7] = tested on: Escherichia coli ATCC 10536; assay: Antibacterial activity, MIC; type: cell-based; details: ATCC10536, agar two-fold dilution, 37° C., 20 hours
Method in brief: as §1

[8] = tested on: Escherichia coli ATCC 25922; assay: Antibacterial activity, MIC; type: cell-based; details: ATCC25922, agar two-fold dilution, 37° C., 20 hours
Method in brief: as §1

[9] = tested on: Klebsiella pneumoniae ATCC 10031; assay: Antibacterial activity, MIC; type: cell-based; details: ATCC10031, ATCC 10031, agar two-fold dilution, 37° C., 20 hours, read-out: MIC
Method in brief: as §1

[10] = tested on: Micrococcus luteus ATCC 9341; assay: Antibacterial activity, MIC; type: cell-based; details: ATCC9341, ATCC 9341, agar two-fold dilution, 37° C., 20 hours, read-out: MIC
Method in brief: as §1

[11] = tested on: Morganella morganii ATCC 8076h; assay: Antibacterial activity, MIC; type: cell-based; details: ATCC8076H, agar two-fold dilution, 37° C., 20 hours
Method in brief: as §1

[12] = tested on: Proteus mirabilis ATCC 25933; assay: Antibacterial activity, MIC; type: cell-based; details: ATCC25933, ATCC 25933, agar two-fold dilution, 37° C., 20 hours, read-out: MIC
Method in brief: as §1

[13] = tested on: Proteus vulgaris ATCC 6059; assay: Antibacterial activity, MIC; type: cell-based; details: ATCC6059, ATCC 6059, agar two-fold dilution, 37° C., 20 hours, read-out: MIC
Method in brief: as §1

[14] = tested on: Providencia rettgeri ATCC 9250; assay: Antibacterial activity, MIC; type: cell-based; details: ATCC9250, agar two-fold dilution, 37° C., 20 hours
Method in brief: as §1

[15] = tested on: Pseudomonas aeruginosa ATCC 10145; assay: Antibacterial activity, MIC; type: cell-based; details: ATCC10145, ATCC 10145, agar two-fold dilution, 37° C., 20 hours, read-out: MIC
Method in brief: as §1

[16] = tested on: Pseudomonas aeruginosa ATCC 25619; assay: Antibacterial activity, MIC; type: cell-based; details: ATCC25619, ATCC 25619, agar two-fold dilution, 37° C., 20 hours, read-out: MIC
Method in brief: as §1

[17] = tested on: Pseudomonas aeruginosa ATCC 27853; assay: Antibacterial activity, MIC; type: cell-based; details: ATCC27853, ATCC 27853, agar two-fold dilution, 37° C., 20 hours, read-out: MIC
Method in brief: as §1

[18] = tested on: Salmonella typhimurium ATCC 14028; assay: Antibacterial activity, MIC; type: cell-based; details: Salmonella enterica; ATCC 14028; agar two-fold dilution, 37° C., 20 hours; read-out: MIC
Method in brief: as §1

[19] = tested on: Serratia marcescens ATCC 27117; assay: Antibacterial activity, MIC; type: cell-based; details: ATCC27117, ATCC 27117, agar two-fold dilution, 37° C., 20 hours, read-out: MIC
Method in brief: as §1

[20] = tested on: Shigella flexneri ATCC 11836; assay: Antibacterial activity, MIC; type: cell-based; details: ATCC11836, agar two-fold dilution, 37° C., 20 hours
Method in brief: as §1

[21] = tested on: Shigella sonnei ATCC 11060; assay: Antibacterial activity, MIC; type: cell-based; details: ATCC11060, ATCC 11060, agar two-fold dilution, 37° C., 20 hours, read-out: MIC
Method in brief: as §1

[22] = tested on: Staphylococcus aureus ATCC 10537; assay: Antibacterial activity, MIC; type: cell-based; details: ATCC10537, ATCC 10537, agar two-fold dilution, 37° C., 20 hours, read-out: MIC
Method in brief: as §1

[23] = tested on: Staphylococcus aureus ATCC 6538p; assay: Antibacterial activity, MIC; type: cell-based; details: ATCC6538P, ATCC 6538p, agar two-fold dilution, 37° C., 20 hours, read-out: MIC
Method in brief: as §1

[24] = tested on: Staphylococcus epidermidis ATCC 12228; assay: Antibacterial activity, MIC; type: cell-based; details: ATCC12228, ATCC 12228, agar two-fold dilution, 37° C., 20 hours, read-out: MIC
Method in brief: as §1

[25] = tested on: Staphylococcus aureus methicillin resistant; assay: Antibacterial activity against clinically isolated strains, MIC; type: cell-based; details: methicillin resistant, 7 clinical isolates, broth microdilution test; for MIC90: read-out: MIC 90%
Pseudomonas aeruginosa = assay: as above; type: cell-based
[26] = In-vivo absorbency (plasma concentrations & pharmacokinetic parameters); parameters: species or system SD rat (male); details: plasma, SD male rat, iv 20 mg/kg, read-out: Plasma Conc.
[27] = 54 clinical isolates, broth microdilution test

SMILES	MIC [1] [µg/mL]	MIC [2] [µg/mL]	MIC [3] [µg/mL]	MIC [4] [µg/mL]	MIC [5] [µg/mL]	MIC [6] [µg/mL]	MIC [7] [µg/mL]	MIC [8] [µg/mL]	MIC [9] [µg/mL]	MIC [10] [µg/mL]	MIC [11] [µg/mL]	MIC [12] [µg/mL]	MIC [13] [µg/mL]	MIC [14] [µg/mL]	MIC [15] [µg/mL]	MIC [16] [µg/mL]	MIC [17] [µg/mL]	MIC [18] [µg/mL]	MIC [19] [µg/mL]	MIC [20] [µg/mL]	further results
CC(O/N=C(\C(=O)NC1C(=O)N2C(C(=O)[O-])=C(CSc3nc(N)cc(N)[n+]3C)CSC12)c1csc(N)n1)C(=O)O (centres unmarked) [Compound I-4]	4 (≈ 6.56 µM)	> 128	1 (≈ 1.64 µM)	0.063 (≈ 0.103 µM)	1 (≈ 1.64 µM)	0.016 (≈ 0.0262 µM)	0.063 (≈ 0.103 µM)	0.031 (≈ 0.0508 µM)	0.031 (≈ 0.0508 µM)	0.5 (≈ 0.82 µM)	≤ 0.008	0.031 (≈ 0.0508 µM)	0.031 (≈ 0.0508 µM)	≤ 0.008	2 (≈ 3.28 µM)	2 (≈ 3.28 µM)	1 (≈ 1.64 µM)	0.13 (≈ 0.213 µM)	0.063 (≈ 0.103 µM)	0.031 (≈ 0.0508 µM)	MIC [21]: 0.031 µg/mL (≈ 0.0508 µM); MIC [22]: 2 µg/mL (≈ 3.28 µM); MIC [23]: 4 µg/mL (≈ 6.56 µM); MIC [24]: 2 µg/mL (≈ 3.28 µM); MIC [25]: > 32 µg/mL; MIC50 [25]: > 32 µg/mL; MIC90 [25]: > 32 µg/mL; MIC90 (Pseudomonas aeruginosa): 16 µg/mL (≈ 26.2 µM); MIC50 (Pseudomonas aeruginosa; [27]): 4 µg/mL (≈ 6.56 µM); concentration at 1 min [26]: 64000 ng/mL; concentration at 2.5 min [26]: 42000 ng/mL; concentration at 5 min [26]: 32000 ng/mL; concentration at 10 min [26]: 14000 ng/mL; concentration at 20 min [26]: 7300 ng/mL; concentration at 40 min [26]: 4500 ng/mL
CC[n+]1c(N)cc(N)nc1SCC1=C(C(=O)[O-])N2C(=O)C(NC(=O)/C(=N\OC(C)C(=O)O)c3csc(N)n3)C2SC1 (centres unmarked) [Compound I-5]	4 (≈ 6.41 µM)	128 (≈ 205 µM)	1 (≈ 1.6 µM)	0.063 (≈ 0.101 µM)	0.5 (≈ 0.802 µM)	0.016 (≈ 0.0257 µM)	0.063 (≈ 0.101 µM)	0.063 (≈ 0.101 µM)	0.031 (≈ 0.0497 µM)	0.25 (≈ 0.401 µM)	≤ 0.008	0.031 (≈ 0.0497 µM)	0.031 (≈ 0.0497 µM)	≤ 0.008	2 (≈ 3.21 µM)	1 (≈ 1.6 µM)	1 (≈ 1.6 µM)	0.13 (≈ 0.208 µM)	0.063 (≈ 0.101 µM)	0.031 (≈ 0.0497 µM)	MIC [21]: 0.031 µg/mL (≈ 0.0497 µM); MIC [22]: 2 µg/mL (≈ 3.21 µM); MIC [23]: 2 µg/mL (≈ 3.21 µM); MIC [24]: 1 µg/mL (≈ 1.6 µM); MIC50 [25]: > 128 µg/mL; MIC90 [25]: > 128 µg/mL; MIC50 (Pseudomonas aeruginosa; [27]): 4 µg/mL (≈ 6.41 µM); MIC90 (Pseudomonas aeruginosa; 54 clinical isolates, broth microdilution test, read-out: MIC 90%): 8 µg/mL (≈ 12.8 µM); concentration at 1 min [26]: 134000 ng/mL; concentration at 2.5 min [26]: 91000 ng/mL; concentration at 5 min [26]: 72000 ng/mL; concentration at 10 min [26]: 49000 ng/mL; concentration at 20 min [26]: 29000 ng/mL; concentration at 40 min [26]: 13000 ng/mL
C[n+]1c(N)cc(N)nc1SCC1=C(C(=O)[O-])N2C(=O)C(NC(=O)/C(=N\OCC(=O)O)c3csc(N)n3)C2SC1 (centres unmarked) [Compound I-7]	4 (≈ 6.72 µM)	128 (≈ 215 µM)	0.5 (≈ 0.839 µM)	0.031 (≈ 0.052 µM)	0.5 (≈ 0.839 µM)	≤ 0.008	0.016 (≈ 0.0269 µM)	0.016 (≈ 0.0269 µM)	0.016 (≈ 0.0269 µM)	0.5 (≈ 0.839 µM)	≤ 0.008	0.016 (≈ 0.0269 µM)	0.016 (≈ 0.0269 µM)	≤ 0.008	4 (≈ 6.72 µM)	2 (≈ 3.36 µM)	2 (≈ 3.36 µM)	0.063 (≈ 0.106 µM)	0.016 (≈ 0.0269 µM)	≤ 0.008	MIC [21]: 0.016 µg/mL (≈ 0.0269 µM); MIC [22]: 2 µg/mL (≈ 3.36 µM); MIC [23]: 2 µg/mL (≈ 3.36 µM); MIC [24]: 1 µg/mL (≈ 1.68 µM); MIC [25]: > 32 µg/mL; MIC50 [25]: > 32 µg/mL; MIC90 [25]: > 32 µg/mL; MIC90 (Pseudomonas aeruginosa): 16 µg/mL (≈ 26.9 µM); MIC50 (Pseudomonas aeruginosa; [27]): 4 µg/mL (≈ 6.72 µM); concentration at 1 min [26]: 128000 ng/mL; concentration at 2.5 min [26]: 83000 ng/mL; concentration at 5 min [26]: 59000 ng/mL; concentration at 10 min [26]: 43000 ng/mL; concentration at 20 min [26]: 29000 ng/mL; concentration at 40 min [26]: 15000 ng/mL
